Laboratory results reported in article PMC8036666, “Biological and Physico-Chemical Characteristics of Arginine-Rich Peptide Gemini Surfactants with Lysine and Cystine Spacers” (International Journal of Molecular Sciences, 2021).
≈ marks a conversion by molar mass, not a printed value. Where two headings read alike, the source gives them in different places. Where a SMILES comes first, the peptide text is derived from it. Bridges are numbered along the chain shown (N, C = ends). Roman numbers before positions name the chains, in order. Side-chain parts run from the residue outwards. The star is where a group is joined. Lauroyl = CCCCCCCCCCCC(=O)*; Decanoyl = CCCCCCCCCC(=O)*; Octanoyl = CCCCCCCC(=O)*

Legend:
[1] = Lipopeptide hydrophobicity by RP-HPLC (adjusted retention time); assay type: physicochemical; settings: for Adjusted Retention Time: RP-HPLC, 20–65% acetonitrile over 30 min, indicator of hydrophobicity; for Difference in retention time calculated as tR’C—tR’B: between corresponding surfactants of series C and B
Procedure: The identity of the purified peptides was confirmed with electrospray ionization mass spectrometry (ESI-MS) in positive ion mode. Results of MS analyses and net charge are attached in Supplementary Materials (Table S1). Peptides’ hydrophobicity was evaluated by analytical reversed-phase high-performance liquid chromatography (RP-HPLC). The critical aggregation concentrations (CACs) of the lipopeptides were determined in unbuffered aqueous solution at 298 K by measuring the surface tension as a function of lipopeptide concentration. The measurements were carried out by the Du Noüy ring method on a K100 tensiometer. The surface tension data were plotted against the logarithm of lipopeptide concentration. CAC was found as the intersection of two lines being linear regression of data below and above CAC.
Lipopeptide hydrophobicity was determined as described previously. To do this, a Waters Alliance e2695 system with a Waters 2998 PDA Detector (software-Empower 3, Waters, Milford, MA, USA) was used. All analyses were carried out on a Waters X-Bridge Shield RP-18 column (3.0 × 100 mm, 3.5 μm particle size, 130 Å pore size). The Shield Technology column with embedded polar groups was used to minimize interactions of unreacted silanol groups with basic lipopeptides. The peptides were dissolved in water (0.1% TFA, v/v) up to a concentration of 1 mg/mL. UV detection at 214 nm was used, and samples (10 μL) were eluted with a linear 20–65% acetonitrile gradient in deionized water over 30 min at 25.0 ± 0.1 °C. The mobile phase flow rate was 0.5 mL/min. Both eluents contained 0.1% (v/v) of TFA. Each peptide sample was analyzed in triplicate. The maximum standard deviation and coefficient of variation were 0.044 and 0.85%, respectively.

[2] = test system: Enterococcus faecium ATCC 700221; assay type: cell-based
Procedure: (§1) Biofilm is associated with life-threating infections due to its outstanding resistance to antibiotics. In this study, the antibiofilm characteristics of USCLs and gemini surfactants were evaluated.
(§2) The MBECs were determined as described previously using 96-well polystyrene flat-bottom plates. For this purpose, 24 h cultures of microorganisms were diluted to obtain a final density of 5.0 × 10^5 CFU/mL and 2.0 × 10^5 CFU/mL of bacteria and fungi, respectively. Microorganisms were diluted in MHB or RPMI-1640 with 2% D-glucose (bacteria and fungi, respectively). Briefly, 100 µL of cell suspension was added into the test plates. After 24 h of incubation at 37 °C, the wells were rinsed three times with a PBS (pH 7.4) to remove non-adherent cells. Subsequently, 100 μL of the test compounds in a concentration range (1–512 μg/mL) were added to each well. After 24 h of incubation at 37 °C, 20 μL of a cell viability reagent was added (resazurin, 4 g/L; Sigma Aldrich, St. Louis, MO, USA). The MBEC was read after 1 h. The determined values were recorded as the lowest concentration at which the reduction of resazurin (from blue to pink) was lower or equal to 10 ± 0.5% as compared to the positive (100%) and negative (0%) controls. The reduction was monitored by measuring absorbance at 570 nm (reduced) and 600 nm (oxidized) using a microplate spectrophotometer (Multiskan GO Microplate Spectrophotometer, Thermo Fisher Scientific, Vantaa, Finland). All experiments were conducted in triplicate.

[3] = test system: Staphylococcus aureus ATCC 33591; assay type: cell-based
Procedure: as §1, §2

[4] = test system: Acinetobacter baumannii ATCC BAA 1605; assay type: cell-based
Procedure: as §1, §2

[5] = test system: Candida albicans ATCC 10231; assay type: cell-based
Procedure: as §1, §2

[6] = test system: Klebsiella pneumoniae ATCC 700603; assay type: cell-based
Procedure: as §1, §2

[7] = test system: Klebsiella aerogenes ATCC 13048; assay type: cell-based
Procedure: as §1, §2

[8] = test system: Staphylococcus aureus ATCC 25923; assay type: cell-based
Procedure: as §1, §2

[9] = test system: Candida glabrata ATCC 15126; assay type: cell-based
Procedure: as §1, §2

[10] = test system: Pseudomonas aeruginosa ATCC 9027; assay type: cell-based
Procedure: as §1, §2

[11] = test system: C. glabrata ATCC 15126
Procedure: (§3) The Acinetobacter baumannii ATCC BAA-1605, Enterococcus faecium ATCC 700221, Escherichia coli ML-35 ATCC 43827, Klebsiella aerogenes ATCC 13048, Klebsiella pneumoniae ATCC 700603, Pseudomonas aeruginosa ATCC 9027, Staphylococcus aureus ATCC 25923, Staphylococcus aureus ATCC 33591, Candida albicans ATCC 10231, Candida glabrata ATCC 15126, strains were acquired from the American Type Culture Collection (ATCC). All the strains were stored at −80 °C in Roti-Store cryo vials and before the tests were transferred into fresh Mueller–Hinton broth (MHB, Biocorp, Warsaw, Poland) for bacteria or RPMI-1640 (Sigma-Aldrich, Steinheim, Germany) for fungi and incubated for 24 h at 37 °C. Then, the cultures were seeded on the Mueller–Hinton agar (BioMaxima, Lublin, Poland) or Sabouraud dextrose agar (SDA, BioMaxima, Lublin, Poland) plates, respectively, and incubated as just mentioned. These agar cultures were used for further microbiological assays. Cell densities for all assays were adjusted spectrophotometrically (Multiskan GO Microplate Spectrophotometer, Thermo Fisher Scientific, Vantaa, Finland) at 600 and 530 nm for bacteria and fungi, respectively.
(§4) The MICs were determined by the broth microdilution method according to the Clinical and Laboratory Standard Institute guidelines. For this purpose, initial inoculums of bacteria (5 × 10^5 CFU/mL) in MHB and yeasts (2 × 10^3 CFU/mL) in RPMI-1640 with 2% D-glucose were exposed to the ranging concentration of lipopeptides (0.5–256 μg/mL) and incubated at 37 °C for 18 h and 24 h, respectively. The experiments were conducted on 96-well microtiter polystyrene plates (Kartell, Noviglio, Italy). The growth was assessed visually after incubation, and the MIC was assumed as the lowest peptide concentration at which a noticeable growth of microorganisms was inhibited. All experiments were conducted in triplicate.

[12] = test system: C. albicans ATCC 10231
Procedure: as §3, §4

Structure (SMILES) | Adjusted Retention Time [1] [min] | MBEC Enterococcus faecium ATCC 700221 ([2]; ATCC 700221, 24 h) [µg/mL] | MBEC Staphylococcus aureus ATCC 33591 ([3]; ATCC 33591, 24 h) [µg/mL] | MBEC Acinetobacter baumannii ATCC BAA 1605 ([4]; ATCC BAA 1605, 24 h) [µg/mL] | MBEC Candida albicans ATCC 10231 ([5]; ATCC 10231, 24 h) [µg/mL] | MBEC Klebsiella pneumoniae ATCC 700603 ([6]; ATCC 700603, 24 h) [µg/mL] | MBEC Klebsiella aerogenes ATCC 13048 ([7]; ATCC 13048, 24 h) [µg/mL] | MBEC Staphylococcus aureus ATCC 25923 ([8]; ATCC 25923, 24 h) [µg/mL] | MBEC Candida glabrata ATCC 15126 ([9]; ATCC 15126, 24 h) [µg/mL] | MBEC Pseudomonas aeruginosa ATCC 9027 ([10]; ATCC 9027, 24 h) [µg/mL] | MIC C. glabrata ATCC 15126 ([11]; ATCC 15126, 24 h) [µg/mL] | MIC C. albicans ATCC 10231 ([12]; ATCC 10231, 24 h) [µg/mL] | Difference in retention time calculated as tR’C—tR’B [1] [min] | MIC C. glabrata ATCC 15126 ([11]; planktonic culture) | MIC C. albicans ATCC 10231 ([12]; planktonic culture) | further results
CCCCCCCCCCCC(=O)N[C@@H](CCCNC(=N)N)C(=O)N[C@@H](CCCNC(=N)N)C(=O)NCCCC[C@H](NC(=O)[C@H](CCCNC(=N)N)NC(=O)[C@H](CCCNC(=N)N)NC(=O)CCCCCCCCCCC)C(N)=O [Compound B3] (Lauroyl-Arg-Arg-Lys([Arg-Arg-Lauroyl])-NH2) | 19.09 | 16 | 16 | 256 | 32 | 128 | 128 | 64 | 64 | 512 | 2 (≈ 1.76 µM) | 2 (≈ 1.76 µM) |  |  |  | 
CCCCCCCC(=O)N[C@@H](Cc1ccccc1)C(=O)N[C@@H](CCCNC(=N)N)C(=O)N[C@@H](CCCNC(=N)N)C(=O)NCCCC[C@H](NC(=O)[C@H](CCCNC(=N)N)NC(=O)[C@H](CCCNC(=N)N)NC(=O)[C@H](Cc1ccccc1)NC(=O)CCCCCCC)C(N)=O [Compound B5] (Octanoyl-FRRK([Arg-Arg-Phe-Octanoyl])-NH2) | 15.19 | 8 | 4 | 256 | 32 | 256 | 256 | 16 | 256 | 512 | 16 (≈ 12.2 µM) | 16 (≈ 12.2 µM) |  |  |  | 
CCCCCCCC(=O)N[C@@H](CCCNC(=N)N)C(=O)N[C@@H](CCCNC(=N)N)C(=O)N[C@@H](CSSC[C@H](NC(=O)[C@H](CCCNC(=N)N)NC(=O)[C@H](CCCNC(=N)N)NC(=O)CCCCCCC)C(N)=O)C(N)=O [Compound C1] (I: Octanoyl-Arg-Arg-Cys-NH2 / II: Octanoyl-Arg-Arg-Cys-NH2; disulfide I:3-II:3) | 8.26 | 64 | 32 | 512 | 256 | >512 | >512 | 64 | >512 | 512 | 64 (≈ 57.4 µM) | 128 (≈ 115 µM) | 0.15 |  |  | 
CCCCCCC(CCCC)C(=O)N[C@@H](CCCNC(=N)N)C(=O)N[C@@H](CCCNC(=N)N)C(=O)NCCCC[C@H](NC(=O)[C@H](CCCNC(=N)N)NC(=O)[C@H](CCCNC(=N)N)NC(=O)C(CCCC)CCCCCC)C(N)=O (some centres unmarked) [Compound B7] | 14.68 | 8 | 4 | 64 | 64 | 128 | 64 | 8 | 256 | 256 | 16 (≈ 14.1 µM) | 8 (≈ 7.05 µM) |  |  |  | 
CCCCCCCC(=O)N[C@@H](Cc1ccccc1)C(=O)N[C@@H](CCCNC(=N)N)C(=O)N[C@@H](CCCNC(=N)N)C(=O)N[C@@H](CSSC[C@H](NC(=O)[C@H](CCCNC(=N)N)NC(=O)[C@H](CCCNC(=N)N)NC(=O)[C@H](Cc1ccccc1)NC(=O)CCCCCCC)C(N)=O)C(N)=O [Compound C5] (I: Octanoyl-FRRC-NH2 / II: Octanoyl-FRRC-NH2; disulfide I:4-II:4) | 15.42 |  |  |  |  |  |  |  |  |  |  |  | 0.23 | 8 µg/mL (≈ 5.67 µM) | 8 µg/mL (≈ 5.67 µM) | MBEC Enterococcus faecium ATCC 700221 ([2]; 24 h biofilm on polystyrene): 8 µg/mL; MBEC Staphylococcus aureus ATCC 33591 ([3]; 24 h biofilm on polystyrene): 8 µg/mL; MBEC Acinetobacter baumannii ATCC BAA 1605 ([4]; 24 h biofilm on polystyrene): 512 µg/mL; MBEC Candida albicans ATCC 10231 ([5]; 24 h biofilm on polystyrene): 128 µg/mL; MBEC Klebsiella pneumoniae ATCC 700603 ([6]; 24 h biofilm on polystyrene): 256 µg/mL; MBEC Klebsiella aerogenes ATCC 13048 ([7]; 24 h biofilm on polystyrene): 256 µg/mL; MBEC Staphylococcus aureus ATCC 25923 ([8]; 24 h biofilm on polystyrene): 64 µg/mL; MBEC Candida glabrata ATCC 15126 ([9]; 24 h biofilm on polystyrene): 256 µg/mL; MBEC Pseudomonas aeruginosa ATCC 9027 ([10]; 24 h biofilm on polystyrene): 512 µg/mL
CCCCCCCCCC(=O)N[C@@H](CCCNC(=N)N)C(=O)N[C@@H](CCCNC(=N)N)C(N)=O [Compound A2, C10-RR-NH2] (Decanoyl-Arg-Arg-NH2) | 7.74 | 512 | 512 | >512 | 512 | >512 | >512 | 512 | >512 | >512 |  |  |  | >256 (−/−) µg/mL | >256 (−/−) µg/mL | 
